According to ChEMBL document CHEMBL1140629, “2D QSAR studies on thyroid hormone receptor ligands” (Bioorg Med Chem, 2007):

Columns and labels:
[1] = molecular target: T1, Thyroid hormone receptor alpha (Homo sapiens, UniProt P10827)
T1 sequence (P10827 whole entry): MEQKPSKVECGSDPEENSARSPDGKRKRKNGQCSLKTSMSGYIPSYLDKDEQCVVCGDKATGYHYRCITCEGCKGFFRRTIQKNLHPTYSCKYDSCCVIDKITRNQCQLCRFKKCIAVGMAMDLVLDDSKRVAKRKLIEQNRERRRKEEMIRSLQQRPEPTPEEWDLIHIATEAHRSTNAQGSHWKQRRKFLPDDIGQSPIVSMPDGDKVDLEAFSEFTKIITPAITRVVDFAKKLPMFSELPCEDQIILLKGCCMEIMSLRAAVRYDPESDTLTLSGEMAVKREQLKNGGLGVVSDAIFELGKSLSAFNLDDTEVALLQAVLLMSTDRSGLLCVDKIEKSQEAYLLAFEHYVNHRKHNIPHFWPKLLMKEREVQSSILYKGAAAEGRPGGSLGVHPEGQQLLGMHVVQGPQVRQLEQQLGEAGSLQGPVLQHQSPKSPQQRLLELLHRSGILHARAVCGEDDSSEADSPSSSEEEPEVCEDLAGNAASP

[2] = molecular target: T2, Thyroid hormone receptor beta (Homo sapiens, UniProt P10828)
T2 sequence (P10828 whole entry): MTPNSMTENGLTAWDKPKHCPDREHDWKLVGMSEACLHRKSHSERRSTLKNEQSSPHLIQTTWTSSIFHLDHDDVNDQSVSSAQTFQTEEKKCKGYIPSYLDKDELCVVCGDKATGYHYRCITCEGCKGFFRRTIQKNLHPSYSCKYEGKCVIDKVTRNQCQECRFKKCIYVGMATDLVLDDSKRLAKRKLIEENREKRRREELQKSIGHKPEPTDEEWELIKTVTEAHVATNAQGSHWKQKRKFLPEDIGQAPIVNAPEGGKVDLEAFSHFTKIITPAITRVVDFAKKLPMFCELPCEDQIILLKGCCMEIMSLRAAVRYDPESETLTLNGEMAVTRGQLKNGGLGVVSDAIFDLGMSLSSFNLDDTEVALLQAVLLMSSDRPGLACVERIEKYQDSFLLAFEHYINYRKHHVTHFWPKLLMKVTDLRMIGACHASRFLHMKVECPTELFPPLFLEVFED

SMILES | IC50 [1] [nM] | IC50 [2] [nM]
O=C(O)Cc1cc(Br)c(Oc2ccc(O)c(Oc3ccc(O)cc3)c2)c(Br)c1 | 240 | 
O=C(O)CCc1cc(Br)c(OC2CCCCC2)c(Br)c1 | 457 | 191
CC(C)c1cc(Oc2c(Cl)cc3[nH]c(C(=O)O)cc(=O)c3c2Cl)ccc1O |  | 15.1
CC(C)c1cc(Oc2c(Br)cc3c(c2Br)CC(C(=O)O)N3)ccc1O (stereo unspecified) | 38 | 8.51
O=C(O)Cc1cc(Br)c(Oc2ccc(O)c(C(=O)NCc3ccccc3)c2)c(Br)c1 | 85.1 | 
O=C(O)Cc1cc(Cl)c(Oc2ccc(O)c(C(=O)NCc3ccccc3)c2)c(Cl)c1 | 126 | 3.47
CCCCOc1c(Br)cc(CC(=O)O)cc1Br | 26300 | 
O=C(O)Cc1cc(Br)c(OC2CCCCC2)c(Br)c1 | 2690 | 776
O=C(O)Cc1cc(Cl)c(Oc2ccc(O)c(-c3ccccc3)c2)c(Cl)c1 | 129 | 

Next, values leading:

IC50 [1] [nM] | IC50 [2] [nM] | SMILES
 | 35.5 | O=C(O)Cc1cc(Br)c(Oc2ccc(O)c(C(=O)Nc3ccccc3)c2)c(Br)c1
339 | 9.55 | O=C(O)Cc1cc(Br)c(Oc2ccc(O)c(Cc3ccc(C(F)(F)F)cc3)c2)c(Br)c1
 | 0.851 | O=C(O)Cc1cc(Cl)c(Oc2ccc(O)c(-c3cccc(C(F)(F)F)c3)c2)c(Cl)c1
 | 4.9 | COc1cccc(CCNC(=O)c2cc(Oc3c(Br)cc(CC(=O)O)cc3Br)ccc2O)c1
1150 |  | O=C(O)Cc1cc(Br)c(Oc2ccc(O)c(C(=O)NCCc3ccccn3)c2)c(Br)c1
 | 3.24 | O=C(O)Cc1cc(Cl)c(Oc2ccc(O)c(-c3ccccc3C(F)(F)F)c2)c(Cl)c1
1170 |  | O=C(O)Cc1cc(Cl)c(Oc2ccc(O)c(-c3cccc(O)c3)c2)c(Cl)c1
